Experimental data from PubChem BioAssay (NCI).
“And” between values parts separate entries of the source, which are not always exact repeats. Equal entries are not always repeated.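 All cell lines were grown in 96-well plates and treated with compound for 48 hours. At the GI50, growth is halved. Definition used: TGI = concentration required for complete inhibition of growth.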

Tests used:
Test in all cases: NCI anticancer screen, dose series, 48 h
A549 NSCLC = test system: A549 NSCLC
CCRF-CEM leukemia = test system: CCRF-CEM leukemia
HCT-15 colon = test system: HCT-15 colon
HT29 colon = test system: HT29 colon
M14 melanoma = test system: M14 melanoma
MDA-MB-435 = test system: MDA-MB-435
OVCAR-5 ovarian = test system: OVCAR-5 ovarian
OVCAR-8 ovarian = test system: OVCAR-8 ovarian

Row | SMILES | GI50 (A549 NSCLC) [µM] | TGI (A549 NSCLC) [µM] | GI50 (CCRF-CEM leukemia) [nM] | TGI (CCRF-CEM leukemia) [µM] | GI50 (HCT-15 colon) | TGI (HCT-15 colon) [µM] | GI50 (HT29 colon) [nM] | TGI (HT29 colon) [µM] | GI50 (M14 melanoma) [nM] | TGI (M14 melanoma) [µM] | GI50 (MDA-MB-435) | TGI (MDA-MB-435) [µM] | GI50 (OVCAR-5 ovarian) | TGI (OVCAR-5 ovarian) [µM] | GI50 (OVCAR-8 ovarian) [nM] | TGI (OVCAR-8 ovarian) [µM]
1 | CN1CCN(Cc2ccc(C(=O)Nc3cncc(C#Cc4cnc(N)c5ccccc45)c3)cc2C(F)(F)F)CC1 | 1.94 | 3.85 | 2910 | 9.07 | 1940 nM | 4.6 | 2050 | 5.02 | 4220 | 14.8 | 1710 nM | 3.12 | 2.67 µM | 6.91 | 2320 | 5.38
2 | CC(C)(C)c1cc(O)c(O)c(C(C)(C)C)c1 | 3.49 | 12.2 | 2330 | 7.49 | 3380 nM | 11.2 | 2900 | 6.71 | 3910 | 13.8 | 3300 nM | 14.1 | 11.1 µM | 23.3 | 3480 | 16.4
3 | COc1cc2c3c(cccc3c1)C(=O)N(CCN1CCCC1)C2=O | 1.91 | 5.31 | 2860 | > 100 | 2630 nM | > 100 | 1790 | 20.2 | 2380 | 5.66 | 2810 nM | 8.25 | 4.12 µM | > 100 | 1660 | > 100
4 | COc1ccc(-c2nn(-c3cccc(Cl)c3)cc2C2CC(c3ccccc3)=NN2C(C)=O)cc1 (stereo not given) | 7.58 | > 100 | > 100000 | > 100 | > 100000 nM | > 100 | 5490 | > 100 | 7680 | > 100 | > 100000 nM | > 100 | > 100 µM | > 100 | 4750 | > 100
5 | C=C1C(O)C2CCC(C)(C)C(=O)C2=C(CC(C)C)C12CC2 (stereo not given) | 93.3 | > 100 | 36800 | > 100 | 54400 nM | > 100 | 76600 | > 100 | 80800 | > 100 | 67400 nM | > 100 | > 100 µM | > 100 | > 100000 | > 100
6 | CSc1nc(SC)c2c(CN=[N+]=[N-])c(Br)n(Cc3ccccc3)c2n1 | – | > 100 | – | > 100 | – | > 100 | – | > 100 | – | > 100 | – | > 100 | – | > 100 | – | > 100
7 | CCN1CCN(c2nc(NCCCNc3ccnc4cc(Cl)ccc34)c3ccccc3n2)CC1 | 2.84 | 11.9 | 2880 | 10.3 | 2600 nM | 10.9 | 2600 | 7.22 | 1860 | 3.63 | 1920 nM | 3.53 | 3 µM | 11 | 3500 | 12.9
8 | COc1cccc(/C=C/C(=O)c2cc3c(N)c(C(=O)Nc4ccccc4C)sc3nc2C)c1 | 1.53 | 6.29 | 1330 | > 50 | 854 nM | 1.87 | 1110 | 2.58 | 1590 | 6.42 | 1070 nM | 2.77 | 1.21 µM | 3.76 | 1260 | > 50
9 | N/C(CC(=O)Nc1cc(C(F)(F)F)ccc1Cl)=N\O | – | > 100 | – | – | – | > 100 | – | > 100 | – | > 100 | – | > 100 | – | > 100 | – | > 100
10 | Cc1nn(-c2ccc(S(=O)(=O)[O-])cc2)c([O-])c1N=[N+](C)c1ccc(-c2ccc(N=Nc3ccc4c(S(=O)(=O)[O-])cc(S(=O)(=O)[O-])c(N)c4c3[O-])c([O-])c2)cc1[O-].[Cu+2].[Cu+2].[Na+] | > 100 | > 100 | > 100000 | > 100 | > 100000 nM | > 100 | > 100000 | > 100 | > 100000 | > 100 | > 100000 nM | > 100 | > 100 µM | > 100 | > 100000 | > 100
11 | O=C(CSc1nc2ccc([N+](=O)[O-])cc2[nH]1)Nc1ccc(F)c(Cl)c1 | 2.48 | 12.6 | 2750 | > 45.7 | 2840 nM | 13 | 3140 | 11.9 | 2810 | 12.4 | 2600 nM | 12.6 | 2.65 µM | 11.5 | 3040 | > 34.4
12 | CCOc1ccc(S(=O)(=O)/N=C2\C=C(SCC(=O)O)C(=O)c3ccccc32)cc1 | 12.6 | 34.9 | – | – | 4770 nM | 17.2 | 3210 | 13 | 2720 | 8.12 | 1750 nM | 3.63 | 5.5 µM | 25.1 | 2820 | 10.3
13 | COc1c(C2CC(=O)Nc3c2cnn3Cc2ccco2)cc2c(c1OC)OCO2 (stereo not given) | 0.61 | > 100 | 597 | > 100 | 431 nM | > 100 | 372 | > 100 | 408 | > 100 | – | – | 4.7 µM | > 100 | 924 | > 100
14 | C=C1C(=O)O[C@H]2[C@H]1CC/C(CNC(=O)c1c[nH]c3ccc(F)cc13)=C\CC[C@@]1(C)O[C@@H]21 | 4.59 | 19.6 | 359 | 1.83 | 732 nM | 2.21 | 1190 | 2.91 | 1040 | 2.33 | 1770 nM | 7.41 | 1.9 µM | 4.82 | 2610 | 10.3
15 | C=CC(=O)N[C@H]1C=C(C)c2c(-c3cnc4ccccc4c3)c3c(N)ncnc3n2C1 | 11.6 | > 67 | 22300 | > 100 | 23100 nM | > 80.3 | 11000 | > 100 | 10000 | 32.4 | 17800 nM | 67 | 21.2 µM | 93.3 | 16700 | > 100
16 | O=C(Nc1nc2ccccc2s1)OCC(F)(F)F | > 100 | > 100 | > 100000 | > 100 | > 100000 nM | > 100 | > 100000 | > 100 | > 100000 | > 100 | > 100000 nM | > 100 | > 100 µM | > 100 | > 100000 | > 100

Row | SMILES | GI50 (A549 NSCLC) [µM] | TGI (A549 NSCLC) [µM] | GI50 (CCRF-CEM leukemia) [nM] | TGI (CCRF-CEM leukemia) [µM] | GI50 (HCT-15 colon) | TGI (HCT-15 colon) [µM] | GI50 (HT29 colon) [nM] | TGI (HT29 colon) [µM] | GI50 (M14 melanoma) [nM] | TGI (M14 melanoma) [µM] | GI50 (MDA-MB-435) | TGI (MDA-MB-435) [µM] | GI50 (OVCAR-5 ovarian) | TGI (OVCAR-5 ovarian) [µM] | GI50 (OVCAR-8 ovarian) [nM] | TGI (OVCAR-8 ovarian) [µM]
17 | COc1ccc(/C=C/C=C(/C#N)C(N)=S)cc1 | 33.1 | > 100 | – | – | 25400 nM | 82.8 | 26000 | > 100 | 18800 | 42.7 | 21600 nM | 77.1 | 34.3 µM | 95.8 | 21500 | 54.3
18 | O=C(NNc1nc2c(F)cccc2n2cccc12)c1cnccn1 | 0.466 | 36 | 126 | – | 178 nM | > 48.2 | 604 | 50.3 | 269 | 11.7 | 821 nM | 26.3 | 1.51 µM | > 61.1 | 414 | > 81.6
19 | Brc1cccc(-c2cc(-c3ccc4c(c3)OCCO4)[nH]n2)c1 | 1.57 | 37.6 | 1590 | 250 | 731 nM | 30.6 | 804 | 27.4 | 729 | 31.1 | 186 nM | 0.97 | 3.69 µM | 35.4 | 1680 | 40.1
20 | O=C(Nc1cccc(-n2ccc3c(NC(=O)c4ccccc4)nccc32)c1)c1cccc(C(F)(F)F)c1 | 0.043 | 2.61 | 35.8 | 4.13 | 35.7 nM | – | 33.2 | 0.388 | – | – | 17.2 nM | 0.043 | 0.239 µM | > 100 | 36 | 2.43
21 | COC1(C(=O)N2Cc3nc(Cl)nc(N[C@H](C)c4cc(N)cc(C(F)(F)F)c4)c3C2)CCOCC1 | 21.1 | > 100 | 31300 | 99 | 23200 nM | > 76.3 | 18000 | 36.6 | 17800 | 40.6 | 18600 nM | 41.4 | 18.2 µM | 58 | 23100 | > 88.5
22 | C#Cc1cnc(=O)n(C2CC(O)C(CO)O2)c1 (stereo not given) | > 100 | > 100 | 13500 | > 32.8 | > 100000 nM | > 100 | – | – | > 100000 | > 100 | > 100000 nM | > 100 | > 100 µM | > 100 | > 100000 | > 100
23 | N#CC(=C1SCS1)[N+](=O)[O-] | 4 | 40.6 | 376 | 5.18 | 853 nM | 9.56 | 336 | 11.2 | – | – | 1480 nM | 16.9 | 4.12 µM | 19.9 | 3160 | 13.8
24 | O=C(CCN1CCN(c2cnc3ccccc3n2)CC1)c1csc2ccccc12 | – | – | 19200 | > 100 | 62600 nM | > 100 | 38400 | > 100 | 75200 | > 100 | > 100000 nM | > 100 | > 100 µM | > 100 | > 100000 | > 100
25 | CCc1c2c(nc3cc4c(cc13)OCO4)-c1cc3c(c(=O)n1C2)COC(=O)[C@]3(O)CC | – | 2.08 | – | – | 182 nM and 137 nM | > 100 | 53.7 | > 100 | < 1 | > 100 | 18.2 nM and 96.1 nM | > 100 | 0.885 µM and 0.313 µM | 2.27 | – | –
26 | N#Cc1c(-c2cccs2)c2c(=S)[nH]c(=S)[nH]c2[nH]c1=S | 28.9 | > 100 | – | – | 37000 nM | > 100 | – | – | 57500 | > 100 | 41100 nM | > 100 | > 100 µM | > 100 | – | –
27 | COc1ccc(C(=O)Nc2ncc(Cc3ccc(Cl)cc3)s2)cc1 | 0.0733 | > 100 | 46 | > 100 | 44 nM | > 100 | 39.6 | > 100 | 42.2 | > 100 | – | – | 0.247 µM | > 100 | 117 | > 100
28 | O=C(/C=C/c1ccc(Cl)cc1)c1ccc(Cl)cc1Cl | 8.63 | 17.5 | – | – | 6400 nM | 15.3 | – | – | 10900 | 24.2 | 9110 nM | 24.3 | 9.15 µM | 18 | 8650 | 21.5
29 | Nc1n[nH]c2ccc([C@@H]3Nc4ccc5[nH]ncc5c4[C@H]4[C@H]5CCC(C5)[C@H]43)cc12 | 0.586 | > 100 | 383 | > 100 | 407 nM | > 100 | 350 | > 36.8 | 293 | > 40.7 | – | – | 0.572 µM | 49.6 | 479 | > 47.5
30 | C[C@@H]1CC[C@H]2C(COCC3=C(C(F)(F)F)O[C@@H]4O[C@@]5(C)CC[C@H]6[C@H](C)CC[C@@H]3[C@@]46OO5)=C(C(F)(F)F)O[C@@H]3O[C@@]4(C)CC[C@@H]1[C@]32OO4 | 0.0126 | > 100 | < 28.4 | > 100 | < 10 nM | > 100 | < 10 | > 100 | – | – | < 10.8 nM | > 100 | 0.0101 µM | > 100 | < 17.8 | > 100
31 | O=C1/C(=C/c2ccc(F)cc2)CCOc2ccc([N+](=O)[O-])cc21 | 8.47 | 23.7 | 761 | 3.47 | 41600 nM | > 100 | – | – | 2220 | 5.61 | 1940 nM | 7.26 | 2 µM | 4.62 | 2680 | 9.24
